Measurements published in BindingDB's records for doi:10.1021/jm00168a011 (Merrell Dow Research Institute, 1990).
Structures can show the parent of a compound that is named as a salt.

What follows are compounds tested against T1, 5-hydroxytryptamine receptor 3A/3B (Mus musculus, UniProt P23979+Q9JHJ5) (assay: Binding affinity towards 5-hydroxytryptamine 3 receptor was determined by using [3H]-ICS 205-930 as radioligand in mouse N1E 115 cells).
T1 sequence (P23979 whole entry): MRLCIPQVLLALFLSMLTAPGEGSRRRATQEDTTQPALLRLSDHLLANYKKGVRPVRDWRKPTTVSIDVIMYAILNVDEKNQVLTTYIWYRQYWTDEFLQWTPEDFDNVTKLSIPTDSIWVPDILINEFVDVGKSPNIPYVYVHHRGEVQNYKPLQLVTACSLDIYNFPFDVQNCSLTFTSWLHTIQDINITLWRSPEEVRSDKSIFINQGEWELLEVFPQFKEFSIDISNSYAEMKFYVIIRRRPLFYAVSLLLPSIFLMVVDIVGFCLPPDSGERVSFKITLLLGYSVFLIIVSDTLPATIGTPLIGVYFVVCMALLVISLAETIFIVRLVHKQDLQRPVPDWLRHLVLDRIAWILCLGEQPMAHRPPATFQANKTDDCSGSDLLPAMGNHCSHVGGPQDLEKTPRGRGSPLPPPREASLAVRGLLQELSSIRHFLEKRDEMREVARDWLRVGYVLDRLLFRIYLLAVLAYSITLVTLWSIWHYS
T1 sequence (Q9JHJ5 whole entry): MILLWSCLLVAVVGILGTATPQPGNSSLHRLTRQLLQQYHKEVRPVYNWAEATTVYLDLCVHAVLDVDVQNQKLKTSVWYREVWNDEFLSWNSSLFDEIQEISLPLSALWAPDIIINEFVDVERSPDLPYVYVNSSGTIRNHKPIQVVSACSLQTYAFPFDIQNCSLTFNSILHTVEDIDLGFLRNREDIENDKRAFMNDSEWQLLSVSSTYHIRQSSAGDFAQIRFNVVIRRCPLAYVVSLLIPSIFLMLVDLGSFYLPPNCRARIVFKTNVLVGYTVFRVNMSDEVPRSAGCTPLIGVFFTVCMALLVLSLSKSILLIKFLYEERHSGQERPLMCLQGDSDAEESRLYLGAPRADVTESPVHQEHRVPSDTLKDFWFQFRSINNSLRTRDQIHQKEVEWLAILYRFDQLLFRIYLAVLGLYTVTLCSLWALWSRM

| Structure (SMILES) | Kd [nM] |
| --- | --- |
| O=C(OC1CC2CCC(C1)N2)c1c[nH]c2ccccc12 (stereo unspecified) [NORTROPISETRON] | 0.724 |
| CN1[C@@H]2CC[C@H]1C[C@@H](OC(=O)c1c[nH]c3ccccc13)C2 [(3-ENDO)-8-METHYL-8-AZABICYCLO[3.2.1]OCT-3-YL 1H-INDOLE-3-CARBOXYLATE] | 0.813 |
| Cc1nccn1CC1CCc2c(c3ccccc3n2C)C1=O (stereo unspecified) [NSC_68647] | 13 |
| CN1[C@@H]2CC[C@H]1C[C@@H](OC(=O)c1cc(Cl)cc(Cl)c1)C2 [TROPANYL 3,5-DICHLOROBENZOATE] | 6.2 |
| c1ccc2nc(N3CCNCC3)ccc2c1 [2-Piperazin-1-yl-quinoline (Quipazine)] | 2 |
| CCN(CC)CCNC(=O)c1cc(Cl)c(N)cc1OC [4-amino-5-chloro-N-[2-(diethylamino)ethyl]-2-methoxy-benzamide;hydrochloride] | 224 |
